Data on 6 compounds can be found in paper PMC5597618, “Identification and characterization of the novel reversible and selective cathepsin X inhibitors” (Scientific Reports, 2017).

Assay [1] has as its target cathepsin X. Particulars: cited from earlier work.
The target in assay [2] is T1, cathepsin X (Homo sapiens, UniProt Q9UBR2). Kind of assay: Reversibility of binding: washout experiment and dilution method. Format: biochemical. Set-up: made in house; host or cells: Pichia pastoris. Here is the method: The reversibility of binding was determined in two separate experiments. In the washout experiment[47] 20 nM cathepsin X was mixed with a saturating level of the inhibitor (100 μM) and incubated for 1 hour at room temperature. One half of the reaction mixture was assayed for activity and the other half was diluted approximately 200000-fold with assay buffer prior to the activity assay. Step-wise dilution and concentration was performed on a Centricon (Millipore) with 10 kDa cut-off. In the dilution method[19] cathepsin X (5 μM) was incubated with inhibitor (100 μM). Half the reaction mixture was diluted 100-fold with the assay buffer containing substrate and immediately assayed for activity, the other half was incubated for 2 hours, diluted 100-fold and then assayed for activity.
T1 sequence (Q9UBR2 62-303): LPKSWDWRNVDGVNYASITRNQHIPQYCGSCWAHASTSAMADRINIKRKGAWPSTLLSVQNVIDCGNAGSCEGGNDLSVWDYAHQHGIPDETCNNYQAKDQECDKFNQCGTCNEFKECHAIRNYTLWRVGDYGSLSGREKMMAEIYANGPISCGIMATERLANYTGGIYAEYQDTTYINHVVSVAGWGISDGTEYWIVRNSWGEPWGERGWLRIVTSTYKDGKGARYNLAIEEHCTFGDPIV

Assay [3] addresses T2, Cathepsin B (endopeptidase a.) (Homo sapiens, UniProt P07858).
T2 construct: made in house; host or cells: E. coli
Kind of assay: Ki against cathepsin B endopeptidase activity (Z-RR-AMC). The class given is biochemical. Particulars: SigmaPlot at 3 different substrate concentrations; pH 6.0. The method, then: (§1) Recombinant or native human cathepsins were used: recombinant cathepsin X and cathepsin S were expressed in Pichia pastoris, recombinant cathepsins B and L in E. coli, [43], native cathepsin H was isolated from human liver. Assay buffers for determining activities of cathepsins X and L consisted of 100 mM sodium acetate buffer, pH 5.5, for cathepsins H, S and B (endopeptidase activity) of 100 mM phosphate buffer pH 6.8, 6.5 and 6.0, respectively and for cathepsin B (exopeptidase activity) of 60 mM acetate buffer pH 5.0. Each assay buffer contained 0.01% Triton X-100 to prevent false positive inhibition due to aggregation of compounds[45], 5 mM cysteine, 1.5 mM EDTA and 0.1% PEG 8000. Enzymes were activated at 37 °C for 5 min before the assays.
(§2) Ki was determined by measuring the initial rate of hydrolysis at three different substrate concentrations (Supplementary Table S2) in the presence of seven different compound concentrations (0, 20, 40, 60, 80, 100 and 200 μM). 90 μL of the activated cathepsin was added to a black 96-well plate with 5 μL of the substrate and 5 μL of the compound. Formation of the fluorescent degradation product was monitored continuously at 460 nm ± 10 nm with excitation at 380 nm ± 20 nm (for AMC substrates) and, as noted above for Abz substrates, at 37 °C. All measurements were performed twice and in duplicate. The resulting data were analyzed by non-linear regression using the software SigmaPlot®, Enzyme Kinetics Module™ 1.3 and were fitted to the equation v = v max [S]/([S] (1 + [I]/αK i ) + K m (1 + [I]/K i )) (first group of compounds). For Ki determination against cathepsin X for the compounds from the second group, progress curves in the absence and presence of each putative inhibitor were fitted to the reaction mechanism presented in Fig. 3b. In this case the resulting data as well as reactivation curves were fitted to the equation system presented in Fig. 3c using ENZO application. For calculation of kinetic parameters from reaction progress curves the fluorescence coefficient for conversion of arbitrary fluorescence units to concentration was first determined. The fluorescence coefficient was calculated as the slope from the plot of initial substrate concentration vs. height of the plateau of the progress curve after complete hydrolysis of increasing concentrations of substrate, using linear regression.
(§3) Supplementary Table S2. Substrates used for the various cathepsins and their concentrations […]
(§4) Enzyme Substrate Concentration (µM) Reference/Company cathepsin X Abz-FEK(Dnp)-OH 3.25, 6.5, 13 Puzer et al.3 cathepsin B - endopept. Z-RR-AMC 60, 180, 360 Bachem cathepsin B - exopept. Abz-GIVRAK(Dnp)-OH 1, 3, 6 Bachem cathepsin S Z-VVR-AMC 0.5, 1, 1.5 Biomol cathepsin L Z-FR-AMC 0.5, 1, 4 Bachem cathepsin H Z-R-AMC 20, 80, 160 Biomol […]

In assay [4] the target is T3, Cathepsin B (exopeptidase a.) (Homo sapiens, UniProt P07858).
T3 construct: made in house; host or cells: E. coli
Description: Ki against cathepsin B exopeptidase activity (Abz-GIVRAK(Dnp)-OH). The class given is biochemical. Particulars: SigmaPlot at 3 different substrate concentrations; pH 5.0. The method, then:
as §1, §2, §3, §4

For assay [5], the target named is T4, Cathepsin L (Homo sapiens, UniProt P07711).
T4 construct: made in house; host or cells: E. coli
T4 sequence (P07711 114-333): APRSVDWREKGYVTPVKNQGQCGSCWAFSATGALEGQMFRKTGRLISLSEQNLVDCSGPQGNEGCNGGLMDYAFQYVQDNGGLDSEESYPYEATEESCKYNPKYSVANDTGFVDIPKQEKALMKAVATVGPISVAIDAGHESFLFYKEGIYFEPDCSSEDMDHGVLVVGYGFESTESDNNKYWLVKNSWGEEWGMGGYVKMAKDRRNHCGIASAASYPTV
Kind of assay: Ki against cathepsin L (Z-FR-AMC). Format: biochemical. Particulars: SigmaPlot at 3 different substrate concentrations; pH 5.5. The method, then:
as §1, §2, §3, §4

Assay [6] concerns the target T5, Cathepsin H (Homo sapiens, UniProt P09668).
T5 construct: native cathepsin H was isolated from human liver; from tissue; host or cells: human liver
Kind of assay: Ki against cathepsin H (Z-R-AMC). Format: biochemical. Particulars: SigmaPlot at 3 different substrate concentrations; pH 6.8. Here is the method: as §1, §2, §3, §4

Assay [7] concerns the target T6, Cathepsin S (Homo sapiens, UniProt P25774).
T6 construct: made in house; host or cells: Pichia pastoris
Description: Ki against cathepsin S (Z-VVR-AMC). The class given is biochemical. Particulars: SigmaPlot at 3 different substrate concentrations; pH 6.5. The method, then:
as §1, §2, §3, §4

Assay [8] relates to PC-3 cells. Description: Real time cell migration assay (xCELLigence, CIM plates). Format: cell-based, human. Particulars: 10 μM, compound in upper and bottom compartments, vs DMSO; for inhibition at 10 µM: Homo sapiens, PC-3. The method, then: (§5) Human prostate cancer cell line PC-3 cells (obtained from ATCC, Manassas, USA; ATCC Number: CRL-1435) were cultured in F-12 (Gibco) and Advanced DMEM (Gibco) (1:1) with 10% FBS, 1% penicillin/streptomycin and 1% L-glutamine. Rat pheochromocytoma PC-12 cells (obtained from ATCC, Manassas, USA; ATCC Number: CRL-1721) were cultured in Advanced DMEM (Gibco) with 5% FBS, 10% heat-inactivated horse serum, 1% penicillin/streptomycin and 1% L-glutamine.
Cell migration assay was performed on a Real-Time Cell Analyzer Dual Plate (RTCA DP) Instrument, xCELLigence System (ACEA Biosciences). CIM plates were coated with fibronectin (10 μg/ml, BD Biosciences) on the down and upper side of the microporous PET membrane for 30 min at room temperature and 2 hours at 37 °C, respectively. Excess fibronectin was removed and wells washed with phosphate buffer saline (PBS). Compounds (10 μM) were added to the complete media (lower chambers) or serum-free media (upper chambers). 0.1% DMSO was used as a control. 2 × 10^4 cells were plated per well. In additional experimental setting, inhibitors were added only to the upper chambers 3 hours after experiment started in order to measure their impact only on the cell migration and not the adhesion. Impedance data, reported as cell index, were measured continuously every 15 min for 72 hours and then analyzed with the RTCA Software (ACEA Biosciences, Inc.). Results are normalized to cells treated with DMSO.

Assay [9] concerns the target T7, cathepsin X in lysates of PC-3 cells (Homo sapiens, UniProt Q9UBR2).
T7 construct: endogenous in cells; host or cells: PC-3
Kind of assay: Cathepsin X activity in PC-3 cell lysates. The class given is cell-based. Particulars: 10 μM. Here is the method:
To detect cathepsin X activity in cell lysates, 95 μL of activated cell lysates (0.2 mg/mL total protein in assay buffer) were added to a black 96-well plate containing 5 μL of the substrate. The further procedure was the same as above. In some experiments lysates of non-treated cells were pre-incubated with 10 μM of compounds for 30 minutes and then activity was measured as described above.
For testing the enzyme activity in cell lysates, cells were treated with 10 μM of compounds. After 24 hours lysates were prepared in 50 mM Na acetate buffer pH 5.5 with 1 mM EDTA, 100 mM NaCl and 0.25% Triton X-100. Total protein concentration was determined by DC Protein Assay (Bio Rad) according to the instructions.

The target in assay [10] is T1, cathepsin X. Kind of assay: Determination of Ki values and inhibition mechanism against cathepsin X (Abz-FEK(Dnp)-OH substrate). Format: biochemical. More on the design: made in house; host or cells: Pichia pastoris. Particulars: for Inhibition mechanism: ENZO. The method, then: as §1, §2, §3, §4
Assay [11] concerns the target T1, cathepsin X. Kind of assay: Determination of relative inhibition of cathepsin X. The class given is biochemical. More on the design: made in house; host or cells: Pichia pastoris. The method, then: as §1
Abz-FEK(Dnp)-OH was used as cathepsin X specific substrate in activity assays. 90 μL of activated cathepsin X (20 nM) was added to a black 96-well plate with 5 μL of substrate (3.25 μM final concentration) and 5 μL of the compound (50 μM final concentration). The reaction was monitored continuously at 420 nm ± 10 nm with excitation at 320 nm ± 20 nm and at 37 °C. Relative inhibition (%) was calculated with the equation (1 − v i/v 0) × 100, where v i is reaction velocity in the presence of the compound and v 0 is reaction velocity without the compound.

The subject of assay [12] is PC-12 cells. Description: Neurite outgrowth assay. Format: cell-based, rat. Particulars: 10 µM; 48 h; vs DMSO control. The method, then: as §5
PC-12 cells were seeded in 96-well plates (4 × 10^4/well) coated with poly-L-lysine. Next day, the cells were treated with compounds (10 µM) in serum-free medium, and neurite outgrowth was measured after 48 h using Neurite Outgrowth Staining Kit (Molecular Probes), in accordance with the manufacturer’s instructions. Fluorescence intensity was measured at 525 nm with excitation at 483 nm for cell viability indicator and at 567 nm with excitation at 554 nm for cell membrane indicator. Results, expressing increased neurite outgrowth, were normalized to cells treated with DMSO.

Where [13] appears, read: second group, progress curve analysis with ENZO.
[14] abbreviates: screening at 50 μM compound, read-out: relative inhibition of cathepsin X.
Where [15] appears, read: second group, 50 μM compound, 1 h preincubation, read-out: % inhibition (1 h preincubation).
Setting [16] is: first group, SigmaPlot non-linear regression at 3 different substrate concentrations.

Where two headings read alike, the source gives them in different places. Some results are limits rather than exact numbers.

T6 sequence (P25774 115-331): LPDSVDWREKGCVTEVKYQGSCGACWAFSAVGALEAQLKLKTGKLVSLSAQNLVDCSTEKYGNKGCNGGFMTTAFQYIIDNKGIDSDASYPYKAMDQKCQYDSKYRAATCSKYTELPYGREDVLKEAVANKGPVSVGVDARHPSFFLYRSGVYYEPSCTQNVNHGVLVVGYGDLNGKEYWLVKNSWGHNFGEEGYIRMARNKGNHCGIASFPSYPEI
T5 sequence (P09668 116-335 limits assumed, other chains not shown): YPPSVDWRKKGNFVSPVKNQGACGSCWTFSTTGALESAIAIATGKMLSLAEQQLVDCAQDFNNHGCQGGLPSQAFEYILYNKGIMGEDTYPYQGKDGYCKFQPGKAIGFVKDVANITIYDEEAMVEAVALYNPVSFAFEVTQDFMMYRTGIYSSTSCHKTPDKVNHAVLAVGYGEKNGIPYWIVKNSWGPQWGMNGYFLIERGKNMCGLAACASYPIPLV
T7 sequence (Q9UBR2 62-303): as the sequence (Q9UBR2 62-303) above

With `CCCNC(=O)C1OC1C(=O)NC(C(=O)O)C(C)CC` (stereo not drawn) [nPrNH-(2 S,3 S)tEps-Ile-OH], in assay [1], the kinact/Ki is 225 M^–1s^–1 and the “preference for cathepsin X over cathepsins B or L” value is given as 10 fold.
On to `CC(C)C[C@H](NC(=O)[C@H]1O[C@@H]1C(=O)O)C(=O)NCCCCN=C(N)N` [Compound E-64], for which, in assay [1], the kinact/Ki was 775 M^–1s^–1. Moreover, the “cathepsin X activity after washout” value in assay [2] (1-hour pre-incubation, 100 μM inhibitor, 200000-fold dilution, 10 kDa cut-off) is on record as “retained cathepsin X inhibition”. In [2] (dilution method, cathepsin X 5 μM, inhibitor 100 μM), the “enzyme activity recovered after 100-fold rapid dilution” value is recorded as “remained inhibited”.
For the compound `Cn1cnc(SCC(=O)c2ccc3c(c2)OCCO3)n1` [Compound 12, 1-(2,3-Dihydrobenzo[b][1,4]dioxin-6-yl)-2-((1-methyl-1H-1,2,4-triazol-3-yl)thio)ethanone], the Ki was greater than 500 µM in assay [3]; 120.5 ± 0.9 µM in assay [4]; greater than 500 µM in assay [5]; greater than 500 µM in assay [6]; 5.88 ± 0.21 µM in [10] (setting [13]). Moreover, in [7], the “Ki Cathepsin S” value is recorded as “n.i”. Moreover, the “inhibition of PC-3 cell migration” value in assay [8] is listed as “failed to affect cell migration”. For the same compound, the “inhibition of cathepsin X enzyme activity in lysates of PC-3 cells” value in assay [9] is “trend toward less potent inhibition”. Besides, in assay [10] (second group), the Inhibition mechanism entry was “competitive”. The values for the inhibition at 50 µM in [11] (setting [14]) and in assay [11] (setting [15]) were greater than 70% and 82%, respectively.
Consider `Cc1ccccc1-n1cnnc1SCC(=O)c1ccc2c(c1)OCCO2` [Compound 20, 1-(2,3-Dihydrobenzo[b][1,4]dioxin-6-yl)-2-((4-(o-tolyl)-4H-1,2,4-triazol-3-yl)thio)ethan-1-one], for which the Ki was 301 ± 214 µM in [3], 83.1 ± 7 µM in [4], greater than 500 µM in assay [6] and 8.78 ± 0.39 µM in assay [10] (setting [13]). Further, in assay [5], the “Ki Cathepsin L” value is recorded as “n.i”. In [7], the “Ki Cathepsin S” value is on record as “n.i”. Also, the inhibition at 10 µM in [8] was in the range of 15 to 30%. In addition, the “increase of neurite outgrowth” value in assay [12] is given as “statistically significant increase”. In addition, in [10] (second group), the Inhibition mechanism result is on record as “competitive”. The figures for the inhibition at 50 µM in assay [11] (setting [14]) and in [11] (setting [15]) were greater than 70% and 79%, respectively.
Regarding `Nc1nc(SCC(=O)c2ccc3c(c2)OCCO3)n[nH]1` [Compound 2, 2-((5-Amino-1H-1,2,4-triazol-3-yl)thio)-1-(2,3-dihydrobenzo[b][1,4]dioxin-6-yl)ethanone], the inhibition constant (Ki) is 392 ± 121 µM in [3]; 210 ± 11 µM in assay [4]; 902 ± 89.7 µM in [5]; 483.1 ± 0.6 µM in assay [6]; 463 ± 42.9 µM in [7]; 29.2 ± 2.44 µM in assay [10] (setting [16]). For the same compound, the inhibition at 10 µM in assay [8] fell in the range of 15 to 30%. The “increase of neurite outgrowth” value in [12] is “statistically significant increase”. Moreover, in assay [11] (setting [14]), the inhibition at 50 µM lay within 60 to 75%.
`Cc1[nH]c2ccccc2c1C(=O)CSc1n[nH]c(N)n1` [Compound 1, 2-((5-Amino-1H-1,2,4-triazol-3-yl)thio)-1-(2-methyl-1H-indol-3-yl)ethanone]: the Ki was greater than 1000 µM in assay [3]; 371 ± 97.9 µM in assay [4]; 975 ± 101 µM in [5]; 1870 ± 240 µM in assay [6]; greater than 1000 µM in [7]; 38.4 ± 0.2 µM in [10] (setting [16]). Further, in [8], the “inhibition of PC-3 cell migration” value is on record as “failed to affect cell migration”. In addition, the “inhibition of cathepsin X enzyme activity in lysates of PC-3 cells” value in assay [9] is “trend toward less potent inhibition”. Besides, in assay [11] (setting [14]), the inhibition at 50 µM was 60 to 75%.
